Test results published in patent US12590961B2, “Quantum dot conjugated virus spike protein for cell-based bio-sensing systems and drug screening” (priority 2020, dated 2026).

System: ACE2-GFP HEK293T cells
Type: cell-based, human

**Q.** With O=C(N/N=C/c1cc(O)c(O)cc1O)c1cc2ccccc2cc1O [Dyngo-4a] as the compound, how does the “blocking of endo(RBD-ACE2), QD608-RBD induced translocation of ACE2-GFP” value read?
**A.** Its value is “robustly blocked”.

**Q.** What about the “effect on ACE2-GFP localization, compound alone” value of the same compound?
**A.** Its value is “did not affect the ACE2-GFP localization”.
